Laboratory results as given in patent publication US7238469B2, “Carbon monoxide improves outcomes in tissue and organ transplants and suppresses apoptosis” (priority 2001, dated 2007).

Tested on: βTC3 cells
Experiment: TNF-α mediated apoptosis of β-gal transfected βTC3 cells (percentage of viable cells)
Assay type: cell-based, murine
Description: The murine insulinoma cell line βTC3 (DSMZ, Braunschweig, Germany) was cultured in Dulbecco's Modified Eagle's Medium (DMEM) (Life Technologies, Grand Island, N.Y., USA) supplemented with 2 mM L-glutamine, 100 U/ml penicillin G, 100 U/ml streptomycin and 10% Fetal Calf Serum (FCS) (Life Technologies) and incubated in humidified 5% CO2/95% air at 37° C. This murine β-cell line, derived from transgenic mice carrying a hybrid insulin-promoter simian virus 40 tumor antigen, is known to maintain the features of differentiated β-cells for about 50 passages in culture. […] Compared to other frequently used transformed β-cell lines such as RIN-m5F and HIT, levels of secreted insulin are closer to normal β-cells in the βTC3 cell line. Thus, these cells are useful for studying β-cell regulation and gene expression (D'Ambra et al., Endocrinology 726:2815–22, 1990).
βTC3 were seeded at 3×10^5 cells in 16 mm wells and transfected 15 to 20 hours later using Lipofectamine plus™ reagents (Life Technologies) according to the manufacturer's instructions. Total DNA was maintained constant using empty pcDNA3 vector. The percentage of viable cells was assessed by normalizing the percentage of viable cells of each DNA preparation to the number of control-transfected cells without the apoptotic stimulus (100% viability) (Soares et al., Nature Med. 4:1073–1077, 1998; Sato et al., J. Immunol. 166:4185–4194, 2001).
Murine recombinant TNF-α (R&D Systems) was dissolved in PBS with 1% bovine serum albumin and added to the culture medium (17.5 ng/ml=500 U) 24 hours after transfection. The caspase-3 inhibitor Z-DEVD-FMK and the caspase-8 inhibitor IETD-CHO (Calbiochem, San Diego, Calif.) were dissolved in dimethyl sulphoxide (DMSO, Sigma) and added to the culture medium (10 μM and 1 μM respectively) two hours before treatment with TNF-α. Tin protoporphyrin (SnPPIX) (Porphyrin Products, Logan, Utah) was dissolved (10 mM) in 100 mM NaOH and added 6 hours after transfection to the culture medium (50 μM). The guanylyl cyclase inhibitor 1H[1,2,4]oxadiazolo[4,3-α]quinoxalin-1 (ODQ; Calbiochem) was dissolved in DMSO and added to the culture medium (100 μM) 6 hours after transfection. The cGMP analogue 8-bromoguanosine-3′-5′-cyclic-monophosphate (8-Br-cGMP) (Sigma) was dissolved in water and added to the culture medium (10 μM) 30 minutes before induction of apoptosis. The protein kinase G inhibitor KT5823 (Calbiochem) was dissolved in DMSO and added to the culture medium (1.6 μM) 6 hours after transfection.
Cells and islets were exposed to 1% carbon monoxide in compressed air balanced with 5% CO2, as described elsewhere (see, e.g., Otterbein et al., Nature Med. 6:422–428, 2000). Islets were incubated in RPMI medium pre-saturated with carbon monoxide (4° C. overnight, 1% CO, 5% CO2) for two hours at 37° C. while treatment with 1% CO, 5% CO2 was continued.

With `Nc1nc2c(nc(Br)n2[C@@H]2O[C@@H]3COP(=O)(O)O[C@H]3[C@H]2O)c(=O)[nH]1` [8-Br-cGMP, 8-bromoguanosine-3′-5′-cyclic-monophosphate] as the compound, how does the “effect on βTC3 apoptosis” value (TNF-α, 8-Br-cGMP 10 μM, no CO) read?
The value was “suppressed βTC3 apoptosis to an extent similar to that seen with carbon monoxide”.

`[C-]#[O+]` [CO, carbon monoxide] was tested. Which “effect on β-cell apoptosis induced by etoposide or serum starvation” value (1% CO) did it give?
Its value is “suppressed”.

What about the “effect on β-cell apoptosis, CO exposure immediately after TNF-α” value (1% CO for one hour, tested 24 hours later) of the same compound?
The value was “sufficient to prevent β-cell apoptosis”.

What about the “effect on β-cell apoptosis, CO exposure after induction of apoptosis” value (1% CO for one hour, two hours after TNF-α stimulation) of the same compound?
The value was “still able to suppress β-cell apoptosis”.

What about the “effect on TNF-α mediated apoptosis” value (1% CO, action of HO-1 suppressed by SnPPIX) of the same compound?
The value was “suppressed TNF-α mediated apoptosis to a similar extent as HO-1”.

What about the “effect on β-cell apoptosis, pre-incubation with CO” value (one hour pre-incubation, TNF-α two to three hours after end of CO treatment) of the same compound?
Its value is “prevented β-cell apoptosis”.

Which “effect on the anti-apoptotic effect of exogenous CO” value (TNF-α, 1% CO, ODQ 100 μM, KT5823 1.6 μM) does the source give for `O=c1onc2cnc3ccccc3n12` [ODQ, 1H[1,2,4]oxadiazolo[4,3-α]quinoxalin-1] here?
Its value is “suppressed the anti-apoptotic effect of CO”.

`C=Cc1c2[n-]c(c1C)/C=c1\[n-]/c(c(C)c1C=C)=C\c1[n-]c(c(CCC(=O)O)c1C)C=c1[n-]/c(c(C)c1CCC(=O)O)=C\2.[Sn+4]` [SnPPIX, tin protoporphyrin IX] was tested. Which “anti-apoptotic effect of HO-1 over-expression when HO-1 activity was blocked” value (TNF-α, SnPPIX 50 μM) did it give?
The value was “the anti-apoptotic effect was suppressed”.
